Source: BindingDB's records for doi:10.1074/jbc.M702153200 (University of Bern, 2007)

Legend:
[1] = Displacement of [3H]Ro15-1788 from rat GABAA alpha-1-beta-2-gamma-2 receptor expressed in HEK293 cells after 1 hr assessed as residual binding by liquid scintillation counting
[2] = target: Gamma-aminobutyric acid receptor subunit alpha-1 (Rattus norvegicus) (UniProt P62813); assay: Activity at rat wild type GABAA alpha-1-beta-2-gamma-2 receptor expressed in xenopus oocytes assessed as GABA-elicited response by two electrode voltage clamp method relative to control
Chain of Gamma-aminobutyric acid receptor subunit alpha-1 (Rattus norvegicus) (P62813 whole entry, looked up): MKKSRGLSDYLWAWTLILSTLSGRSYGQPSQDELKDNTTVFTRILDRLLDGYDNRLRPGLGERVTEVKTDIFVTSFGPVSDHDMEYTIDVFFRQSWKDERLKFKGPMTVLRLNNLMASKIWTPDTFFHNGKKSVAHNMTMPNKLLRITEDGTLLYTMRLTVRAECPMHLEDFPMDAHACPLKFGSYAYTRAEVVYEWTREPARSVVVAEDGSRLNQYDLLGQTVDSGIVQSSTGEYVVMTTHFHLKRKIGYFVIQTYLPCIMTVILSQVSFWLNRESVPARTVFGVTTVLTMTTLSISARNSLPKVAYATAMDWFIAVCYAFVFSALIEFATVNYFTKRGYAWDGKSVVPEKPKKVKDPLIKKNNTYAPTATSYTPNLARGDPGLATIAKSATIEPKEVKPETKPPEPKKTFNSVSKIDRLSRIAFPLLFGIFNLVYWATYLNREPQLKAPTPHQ

SMILES | Kd [1] [nM] | EC50 [2] [nM]
CCOC(=O)c1ncn2c1CN(C)C(=O)c1cc(N=C=S)ccc1-2 [8-Isothiocyanato-5-methyl-6-oxo-5,6-dihydro-4H-2,5,10b-triaza-benzo[e]azulene-3-carboxylic acid ethyl ester] | 878 | 250
CCOC(=O)c1ncn2c1CN(C)C(=O)c1cc(N=[N+]=[N-])ccc1-2 [RO-154513] |  | 1.1
